Where two headings read alike, the source gives them in different places.
Key:
[1] = biological target: T1, Gastrin receptor (gastric glands) (Cavia porcellus, UniProt H0VZC5); test: Gastrin Receptor Binding in Guinea Pig Gastric Glands; design: species or system guinea pig (male Hartley); conditions: 25° C., 30 minutes
T1 construct: The washed guinea pig gastric glands prepared as above were resuspended; from tissue; host or cells: guinea pig gastric mucosal glands (male Hartley)
T1 sequence (H0VZC5 1-426): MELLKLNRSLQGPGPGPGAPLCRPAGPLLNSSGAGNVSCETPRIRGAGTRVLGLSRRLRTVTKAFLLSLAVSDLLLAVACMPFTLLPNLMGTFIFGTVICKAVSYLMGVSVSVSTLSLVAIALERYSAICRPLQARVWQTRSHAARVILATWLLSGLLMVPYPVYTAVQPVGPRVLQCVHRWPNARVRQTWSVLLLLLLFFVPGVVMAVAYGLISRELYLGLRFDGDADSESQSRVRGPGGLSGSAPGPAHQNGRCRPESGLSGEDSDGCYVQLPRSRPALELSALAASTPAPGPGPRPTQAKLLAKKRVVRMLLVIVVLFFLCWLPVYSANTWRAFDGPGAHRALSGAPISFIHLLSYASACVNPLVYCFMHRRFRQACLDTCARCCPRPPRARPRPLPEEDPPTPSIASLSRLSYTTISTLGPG

[2] = biological target: T2, CCK receptor (brain, cerebral cortex) (Cavia porcellus, UniProt H0VZC5); test: biochemical; format: binding, Male Hartley guinea pigs; conditions: guinea pig cerebral cortex, ^125 I-CCK-33, 25° C., 2 hours
T2 construct: Cerebral cortex was dissected and used as a receptor source; from tissue; host or cells: guinea pig cerebral cortex membranes (male Hartley)
T2 sequence (H0VZC5 1-426): T1 sequence (H0VZC5 1-426)
Method in brief: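 Binding of [radiolabeled] CCK-33 measured by gamma counting of centrifuged pellets after 2 h at 25°C. Membranes came from guinea pig brain cortex, suspended in 10 mM HEPES, 5 mM MgCl2, 1 mM EGTA, 0.25 mg/ml bacitracin, 0.4% BSA.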

CCK receptor (pancreas) = biological target: T3, CCK receptor (pancreas) (Rattus norvegicus, UniProt P30551); test: CCK Receptor Binding (Pancreas): inhibition of ^125 I-CCK-33 binding; design: species or system Male Sprague-Dawley rats; conditions: rat pancreas membranes, ^125 I-CCK-33, 37° C., 30 minutes
T3 construct: The whole pancreas was dissected free of fat tissue and was homogenized; from tissue; host or cells: rat pancreas membranes (Sprague-Dawley)
T3 sequence (P30551 1-444): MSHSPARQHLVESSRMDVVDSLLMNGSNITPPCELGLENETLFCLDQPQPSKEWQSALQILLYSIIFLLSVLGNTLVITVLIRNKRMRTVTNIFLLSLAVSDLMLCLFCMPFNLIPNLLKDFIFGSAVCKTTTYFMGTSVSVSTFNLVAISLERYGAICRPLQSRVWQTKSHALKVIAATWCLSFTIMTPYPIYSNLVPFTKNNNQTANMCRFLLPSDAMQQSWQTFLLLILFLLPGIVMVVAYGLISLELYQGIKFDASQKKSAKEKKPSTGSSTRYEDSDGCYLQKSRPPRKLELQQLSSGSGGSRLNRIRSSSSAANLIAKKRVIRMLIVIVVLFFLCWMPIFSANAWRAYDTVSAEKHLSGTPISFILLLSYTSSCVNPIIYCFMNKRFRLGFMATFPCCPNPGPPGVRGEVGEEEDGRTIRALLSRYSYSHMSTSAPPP
Method in brief: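 Bound ^125I-CCK-33 was counted in pellets after a 30 min, 37° C incubation followed by centrifugation. Membranes came from male Sprague-Dawley rat pancreas, assayed in Tris HCl pH 7.7 containing DTT, bacitracin, PMSF and o-phenanthroline. For Scatchard analysis, tracer was diluted with rising unlabelled CCK-33.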

[3] = ^125 I-gastrin, read-out: IC50 ^125 I-Gastrin Gastric Glands
[4] = read-out: IC50 ^125 I-CCK Pancreas
[5] = IC50 ^125 I-Gastrin Gastric Glands
[6] = read-out: IC50 ^125 I-CCK Brain

SMILES | IC50 [1, 3] | IC50 ([2]; IC50 ^125 I-CCK Brain) | IC50 (CCK receptor (pancreas); [4]) | IC50 [1, 5] | IC50 (CCK receptor (pancreas); IC50 ^125 I-CCK Pancreas) | IC50 [2, 6]
CN1C(=O)[C@H](NC(=O)c2ccccc2I)N=C(c2ccccc2F)c2ccccc21 [Example 169, 3(R)-(+)-1,3-Dihydro-5-(2-fluorophenyl)-3-(2-iodobenzoylamino)-1-methyl-2H-1,4-benzodiazepin-2-one] | 4400 nM | 3800 nM | 58000 nM | – | – | –
CN1C(=O)[C@@H](NC(=O)c2ccccc2I)N=C(c2ccccc2F)c2ccccc21 [Example 170, 3(S)-(-)-1,3-Dihydro-5-(2-fluorophenyl)-3-(2-iodobenzoylamino)-1-methyl-2H-1,4-benzodiazepin-2-one] | 11000 nM | 45000 nM | 800 nM | – | – | –
CN1C(=O)[C@H](NC(=O)c2ccccc2Cl)N=C(c2ccccc2F)c2ccccc21 [Example 172, 3(R)-(+)-3-(2-Chlorobenzoylamino)-1,3-dihydro-5-(2-fluorophenyl)-1-methyl-2H-1,4-benzodiazepin-2-one] | – | 16000 nM | 3400 nM | 3700 nM | – | –
O=C(N[C@H]1N=C(c2ccccc2)c2ccccc2NC1=O)c1cc2ccccc2[nH]1 [Example 187, 3(S)-(2-Indolecarbonyl)amino-1,3-dihydro-5-phenyl-2H-1,4,-benzodiazepin-2-one] | – | 1300 nM | – | 5300 nM | 3 nM | –
CC(C)C(=O)N[C@H]1N=C(c2ccccc2)c2ccccc2N(C)C1=O [Example 189, (S)-N-(2,3-Dihydro-1-methyl-2-oxo-5-phenyl-1H-1,4-benzodiazepin-3-yl)-2-methylpropanamide] | – | > 100000 nM | 1100 nM | 73000 nM | – | –
CC(C)CC(=O)N[C@H]1N=C(c2ccccc2)c2ccccc2N(C)C1=O [Example 190, (S)-N-(2,3-Dihydro-1-methyl-2-oxo-5-phenyl-1H-1,4-benzodiazepin-3-yl)-3-methylbutanamide] | 130000 nM | – | – | – | 780 nM | > 100000 nM
CN1C(=O)[C@@H](NC(=O)C2CCCCC2)N=C(c2ccccc2)c2ccccc21 [Example 191, (S)-N-(2,3-Dihydro-1-methyl-2-oxo-5-phenyl-1H-1,4-benzodiazepin-3-yl)-cyclohexanecarboxamide] | > 100000 nM | – | 800 nM | – | – | > 100000 nM
CN1C(=O)[C@@H](NC(=O)C(C)(C)C)N=C(c2ccccc2)c2ccccc21 [Example 193, (S)-N-(2,3-Dihydro-1-methyl-2-oxo-5-phenyl-1H-1,4-benzodiazepin-3-yl]-2,2-dimethylpropanamide] | – | > 100000 nM | 1600 nM | 13000 nM | – | –
CCOC(=O)CN1C(=O)C(NC(=O)Nc2ccc(Cl)cc2)N=C(c2ccccc2F)c2ccccc21 (stereo not drawn) [Example 194, 3-((((4-Chlorophenyl)amino)carbonyl)amino)-5-(2-fluorophenyl)-2,3-dihydro-2-oxo-1H-1,4-benzodiazepin-1-acetic acid ethyl ester] | 4 nM | – | 220 nM | – | – | 1.2 nM
CCOC(=O)CN1C(=O)C(NC(=O)NC(C)c2ccccc2)N=C(c2ccccc2F)c2ccccc21 (stereo not drawn) [Example 195, 5-(2-Fluorophenyl)-2,3-dihydro-2-oxo-((((1-phenylethyl)amino)carbonyl)amino)-1H-1,4-benzodiazepine-1-acetic acid ethyl ester] | 400 nM | – | – | – | 4800 nM | > 100 nM
CN1C(=O)C(NC(=O)c2ccc(Cl)cc2N)N=C(c2ccccc2)c2ccccc21 (stereo not drawn) [Example 196, 3-N-(2,3-Dihydro-1-methyl-2-oxo-5-phenyl-1H-1,4-benzodiazepine-3-yl)-2-amino-4-chlorobenzamide] | – | 2400 nM | 0.9 nM | 1900 nM | – | –
CN1C(=O)C(C(=O)Nc2ccc(Cl)cc2)N=C(c2ccccc2)c2ccccc21 (stereo not drawn) [Example 197, N-(4-Chlorphenyl)-2,3-dihydro-1-methyl-2-oxo-5-phenyl-1H-1,4-benzodiazepine-3-carboxamide] | 10000 nM | – | – | – | 1900 nM | 5900 nM
CN1C(=O)C(Cc2cn(C)c3ccccc23)N=C(c2ccccc2)c2ccccc21 (stereo not drawn) [Example 200, 1,3-Dihydro-1-methyl-3-((1-methyl-1H-indol-3-yl)methyl)-5-phenyl-2H-1,4-benzodiazepin-2-one] | 67000 nM | – | – | – | 100 nM | 63000 nM
O=C(O)CN1C(=O)C(NC(=O)Nc2ccc(Cl)cc2)N=C(c2ccccc2)c2ccccc21 (stereo not drawn) [Example 202, 3-((((4-Chlorophenyl)amino)carbonyl)amino)-2,3-dihydro-2-oxo-5-phenyl-1H-1,4-benzodiazepine-1-acetic acid] | 120 nM | – | 56 nM | – | – | 72 nM
CN1C(=O)[C@@H](NC(=O)c2ccc(C(F)(F)F)cc2)N=C(c2ccccc2)c2ccccc21 [Example 203, (S)-N-(2,3-Dihydro-1-methyl-2-oxo-5-phenyl-1H-1,4-benzodiazepin-3-yl)-4-(trifluoromethyl)-benzamide] | 6200 nM | 4600 nM | 1.3 nM | – | – | –
CCOC(=O)CN1C(=O)C(NC(=O)Nc2ccc(Cl)cc2)N=C(c2ccccc2)c2ccccc21 (stereo not drawn) [Example 204, 3-((((4-Chlorophenyl)amino)carbonyl)amino)-2,3-dihydro-2-oxo-5-phenyl-1H-1,4-benzodiazepine-1-acetic acid ethyl ester] | – | 1 nM | 370 nM | 3.3 nM | – | –
CCOC(=O)CN1C(=O)C(NC(=O)NC(C)C)N=C(c2ccccc2F)c2ccccc21 (stereo not drawn) [Example 205, 5-(2-Fluorophenyl)-2,5-dihydro-3-((((1-methylethyl)amino)carbonyl)amino)-2-oxo-1H-1,4-benzodiazepine-1-acetic acid ethyl ester] | 33000 nM | – | – | – | 35000 nM | > 300 nM
CN1C(=O)[C@H](NC(=O)c2ccc(C(F)(F)F)cc2)N=C(c2ccccc2)c2ccccc21 [Example 207, (R)-N-(2,3-Dihydro-1-methyl-2-oxo-5-phenyl-1H-1,4-benzodiazepin-3-yl)-4-(trifluoromethyl)-benzamide] | 4200 nM | 3300 nM | 115000 nM | – | – | –
O=C(Nc1ccc(Cl)cc1)NC1N=C(c2ccccc2)c2ccccc2N(CC(=O)OCc2ccccc2)C1=O (stereo not drawn) [Example 208, 3-((((4-Chlorophenyl)amino)carbonyl)amino)-2,3-dihydro-2-oxo-5-phenyl-1H-1,4-benzodiazepine-1-acetic acid phenylmethyl ester] | 140 nM | – | 1300 nM | – | – | 44 nM
CCOC(=O)CN1C(=O)C(NC(=O)OCc2ccccc2)N=C(c2ccccc2)c2ccccc21 (stereo not drawn) [Example 209, 2,3-Dihydro-2-oxo-5-phenyl-3-(((phenylmethoxy)carbonyl)amino)-1H-1,4-benzodiazepine-1-acetic acid ethyl ester] | 300 nM | – | – | – | 2200 nM | 300 nM
CN1C(=O)[C@@H](Cc2c[nH]c3ccccc23)N=C(c2ccccc2)c2ccccc21 [Example 210, (R)-1,3-Dihydro-3-(1H-indol-3-ylmethyl)-1-methyl-5-phenyl-2H-1,4-benzodiazepin-2-one] | – | 10000 nM | – | 21000 nM | 300 nM | –
O=C(CN1C(=O)C(NC(=O)OCc2ccccc2)N=C(c2ccccc2)c2ccccc21)NCc1ccccc1 (stereo not drawn) [Example 212, (2,3-Dihydro-2-oxo-1-(2-oxo-2-((phenylmethyl)amino)ethyl)-5-phenyl-1H-1,4-benzodiazepin-3-yl)-carbamic acid phenylmethyl ester] | 600 nM | – | – | – | 1900 nM | 400 nM
